{"source": "patent US20170224764A1", "about": "“THERAPEUTIC TARGETING OF MITOCHONDRIA TO PREVENT OSTEOARTHRITIS” (Cornell University, priority 2016, published 2017)", "format_in_all_cases": "cell-based, bovids", "key": {"[1]": {"system": "chondrocytes in cartilage explants", "experiment": "Chondrocyte viability, live/dead staining (calcein AM / ethidium homodimer) of impacted cartilage explants, confocal microscopy", "settings": "1 μM", "experimental": "(§1) Cartilage was harvested from the knee joints of 4 neonatal bovids (n=30 explants). Cartilage explants were subjected to unconfined compression (24.0±1.4 MPa peak stress; 53.8±5.3 GPa/s peak stress rate) using a validated single-impact subcritical damage model.\n(§2) Cartilage explants were treated with 1 μM D-Arg-Dmt-Lys-Phe-NH2 (SS-31) immediately after injury (T0), one hour following injury (T1), or 6 hours after injury (T6), and then cultured for 7 days. Cartilage conditioned media (CCM) was sampled at T0, T1, T6, and every 24 hours after injury (T24-168) for 7 days.\n(§3) Explants were stained with calcein AM and ethidium homodimer (for live and dead cells, respectively) to assess chondrocyte viability at T24 and T168 using confocal microscopy. Live, dead and total cell numbers were quantified in z-stacked digital images using a custom ImageJ macro. To quantify cell membrane damage, CCM was analyzed using a colorimetric lactate dehydrogenase (LDH) activity assay, and cumulative cell membrane damage over the 7-day incubation period was determined for each explant.\n(§4) Tissue harvest. Full thickness cartilage explants were harvested from the knee joints of healthy bovids (n=8 animals, 1-3 days of age) within 48 hours of sacrifice using an 8 mm biopsy punch. Specimens were rinsed in phosphate-buffered saline (PBS), trimmed to a uniform thickness of 3 mm from the articular surface using a custom jig, and placed in cartilage explant media (phenol free DMEM containing 1% FBS, HEPES 0.025 ml/ml, penicillin 100 U/mL, streptomycin 100 U/mL and 0.1 g/L glucose).\n(§5) Rapid impact injury model. Explants were subjected to injury using rapid-impact model or served as unimpacted controls (as described in Example 3). Briefly, explants were positioned in a well containing PBS under the plane-ended tip of a spring-loaded impacting device. The impactor was used to deliver a single, rapid cycle of unconfined axial compression (24.0±1.4 MPa peak stress; 53.8±5.3 GPa/s peak stress rate). Impact force was measured at 50 kHz by a load cell (PCBPiezotronics, Depew, N.Y.) attached to the impactor tip. Voltage from the load cell was recorded with a custom LabVIEW program (NI, Austin Tex.). The impact magnitude was adjusted by setting the deflection of the impactor's internal spring and mechanical parameters for each impact were calculated (as described in Example 3).\nD-Arg-2′,6′-Dmt-Lys-Phe-NH2 (SS-31) treatment. Following injury, explants were cut perpendicular to the articular surface into 2 hemicylinders using a custom cutting jig to ensure uniform geometry. Cartilage was kept moist at all times and each cut was performed with a fresh (unused) and lubricated cutting instrument. Handling of the experimental tissues was strictly minimized at each step. Explants were placed directly into an individual well of a 24-well untreated tissue culture plate containing a known volume (1.5 ml) of cartilage explant media. Cartilage hemicylinders were randomly assigned to one of 10 treatment groups (n=6/group, FIG. 22). Injured (I) and uninjured control (C) explants in the non-treated groups (ITno, CTno) were placed into wells containing only media. Explants in the time zero treatment groups (IT0, CT0) were placed directly into media containing 1 μM D-Arg-2′,6′-Dmt-Lys-Phe-NH2(SS-31). Explants in the one-hour treatment groups (IT1, CT1) were placed into media only and D-Arg-2′,6′-Dmt-Lys-Phe-NH2(1 μM) was added to the wells 1 hour after impact. Explants in the six-hour treatment groups (IT6, CT6) were placed into media only and D-Arg-2′,6′-Dmt-Lys-Phe-NH2 (1 μM) was added 6 hours after impact. Explants in the twelve-hour treatment groups (IT12, CT12) were placed into media only and D-Arg-2′,6′-Dmt-Lys-Phe-NH2 (1 μM) was added 12 hours after impact. Explants were maintained under standard tissue culture conditions (36° C. and 21% O2) for 7 days. Medium was sampled at 1, 6, and 12 hours, and at 3, 5, and 7 days after impact, and stored at −80° C. until biochemical assays were performed. […]"}, "cartilage explants [2]": {"system": "cartilage explants", "experiment": "Cartilage matrix degradation, GAG loss into the media by DMMB assay", "settings": "1 μM", "experimental": "as §1\n[…] Cartilage conditioned media (CCM) was sampled at T0, T1, T6, and every 24 hours after injury (T24-168) for 7 days.\nCartilage matrix degradation was quantified by measuring GAG loss into the media via DMMB assay.\nas §4, §5\nD-Arg-2′,6′-Dmt-Lys-Phe-NH2 (SS-31) treatment. […] Cartilage was kept moist at all times and each cut was performed with a fresh (unused) and lubricated cutting instrument. Handling of the experimental tissues was strictly minimized at each step. Explants were placed directly into an individual well of a 24-well untreated tissue culture plate containing a known volume (1.5 ml) of cartilage explant media. Cartilage hemicylinders were randomly assigned to one of 10 treatment groups (n=6/group, FIG. 22). Injured (I) and uninjured control (C) explants in the non-treated groups (ITno, CTno) were placed into wells containing only media. […]\nCartilage GAG loss. To determine if D-Arg-2′,6′-Dmt-Lys-Phe-NH2 could provide structural protection after impact injury, the loss of glycosaminoglycan (GAG) was determined by routine 1,9-dimethyl-methylene blue dye binding (DMMB) assay. […] Total GAG content was read […], and expressed as the total GAG released into cartilage conditioned media over the culture period per μg dry weight of cartilage. […]"}, "[3]": {"system": "chondrocytes in cartilage explants", "experiment": "Apoptosis, activated caspase 3/7 staining of impacted cartilage explants", "settings": "Example 6, 1 μM", "experimental": "as §4, §5\nD-Arg-2′,6′-Dmt-Lys-Phe-NH2 (SS-31) treatment. […]"}, "cartilage explants [4]": {"system": "cartilage explants", "experiment": "Cell membrane damage, lactate dehydrogenase (LDH) activity assay on cartilage conditioned media", "settings": "1 μM", "experimental": "as §1, §2, §3, §4\nRapid impact injury model. Explants were subjected to injury using rapid-impact model or served as unimpacted controls (as described in Example 3). […] Impact force was measured at 50 kHz by a load cell (PCBPiezotronics, Depew, N.Y.) attached to the impactor tip. Voltage from the load cell was recorded with a custom LabVIEW program (NI, Austin Tex.). The impact magnitude was adjusted by setting the deflection of the impactor's internal spring and mechanical parameters for each impact were calculated (as described in Example 3). […]"}}, "note": "Entries after “also recorded” stand apart in the source; their conditions may differ.", "data": [{"substance": "D-Arg-2′,6′-Dmt-Lys-Phe-NH2", "values": [{"measurement": "chondrocyte death at 24 hours", "setting": "[1]; Example 2, treatment at 0, 1 or 6 hours after impact, versus untreated impacted cartilage", "result": "significantly reduced"}, {"measurement": "chondrocyte viability / death in injury+treatment groups compared with un-injured controls", "setting": "[1]; Example 6, day 1, treatment at 0, 1 or 6 hours", "result": "equivalent to uninjured controls"}, {"measurement": "reduction in impact-induced chondrocyte death, treated versus untreated explants", "setting": "[1]; Example 6, day 1, treatment at 0, 1 or 6 hours after impact", "result": "over 50%"}, {"measurement": "cell death at 1 day post-injury", "setting": "[1]; Example 6, injured groups treated at 0, 1 or 6 hours (IT0, IT1, IT6) versus untreated injured", "result": "potently reduced cell death; also recorded: effective at preventing chondrocyte death"}, {"measurement": "effect of treatment time on cell death", "setting": "[1]; Example 6, injury groups treated at 0, 1 or 6 hours, p=0.93", "result": "no effect of treatment time"}, {"measurement": "chondrocyte death (% dead cells) compared with untreated, injured controls", "setting": "[1]; Example 6, treatment at 0, 1, 6 or 12 hours after impact", "result": "reduced chondrocyte death; also recorded: reduced as compared to untreated, injured controls"}, {"measurement": "impact-induced cell death on day 7", "setting": "[1]; Example 6, treatment immediately, at 1 hour or at 6 hours after impact", "result": "prevented impact-induced cell death to a similar degree; also recorded: effective at preventing chondrocyte death"}, {"measurement": "impact-induced GAG loss into the media", "setting": "cartilage explants [2]; Example 2, treatment at 0, 1 or 6 hours after impact, 96 hr post impact", "result": "decreased GAG loss"}, {"measurement": "decrease of impact-induced GAG loss", "setting": "cartilage explants [2]; Example 6, cumulative GAG loss, p=0.002", "result": "~30", "unit": "%"}, {"measurement": "cartilage matrix degeneration (GAG loss into the media) compared with uninjured controls", "setting": "cartilage explants [2]; Example 6, treatment at 0, 1 or 6 hours after impact", "result": "equivalent to uninjured controls"}, {"measurement": "cartilage matrix degeneration (GAG loss into the media) compared with untreated, injured controls", "setting": "cartilage explants [2]; Example 6, treatment at 12 hours after impact", "result": "reduced cartilage matrix degeneration"}, {"measurement": "impact-induced apoptosis (caspase 3/7 positive cells) at 1 day", "setting": "[3]; 1 day after cartilage injury, p=0.007", "result": "prevented impact-induced apoptosis; also recorded: equivalent to uninjured controls"}, {"measurement": "impact-induced apoptosis (caspase 3/7 positive cells) at 7 days", "setting": "[3]; 7 days after cartilage injury, p=0.04", "result": "prevented impact-induced apoptosis; also recorded: equivalent to uninjured controls"}, {"measurement": "cumulative cell membrane damage (LDH activity) over the 7 days following injury", "setting": "cartilage explants [4]; Example 2, treated versus untreated impacted cartilage", "result": "prevents cell membrane damage; also recorded: lower in treated than untreated cartilage"}, {"measurement": "cumulative cell membrane damage, LDH activity in cartilage conditioned media over the 7 days following injury", "setting": "cartilage explants [4]; Example 6, injured, treated versus injured, untreated cartilage, p=0.0005", "result": "approximately twofold lower; also recorded: lower than injured, untreated explants"}, {"measurement": "cumulative LDH in uninjured controls", "setting": "cartilage explants [4]; Example 6, uninjured, treated versus untreated controls, p=0.05", "result": "lower cumulative LDH than untreated controls; also recorded: protective effect against cell membrane damage"}]}]}
